Values quoted from earlier work as cited in patent publication US11672863B2, “Enhanced solubility drug-containing formulations” (United Therapeutics Corporation, priority 2017, dated 2023).
Where a name gives a salt, the structure may show the parent alone.

Conditions: in water between pH 1.8 and 6

## CCCCN1CCCCC1C(=O)Nc1c(C)cccc1C (stereo not shown) [bupivacaine hydrochloride monohydrate]
  solubility: 40 to 50 mg/mL
